Measurements from publication PMC12693633, “Synthesis and Evaluation of Radiogallium-Labeled Peptide Probes for In Vivo Imaging of Legumain Activity” (Molecules, 2025).
Read-outs that look alike come from different tables or passages of the source. Square brackets hold non-standard residues; d marks the D form. Peptide text beside a SMILES is read from it. * marks the point of attachment. NOTA(2S-Bn(4-NHCS)) = O=C(O)CN1CCN(CC(=O)O)C[C@H](Cc2ccc(NC(=S)*)cc2)N(CC(=O)O)CC1; Cit = NC(=O)NCCC[C@H](N)C(=O)O; Ahx = NCCCCCC(=O)O

Test: In vivo biodistribution in HCT116 tumor-bearing mice
Details: female, mouse, iv, total radioactivity, mean (SD), n = 5; for tissue to tissue ratio at 1 h: BALB/c nu/nu, 7.4 kBq, HCT116 tumor-bearing mice, 1 h after i.v. injection; for tissue uptake at 1 h / tissue uptake dose at 1 h: 7.4 kBq i.v. (tail vein), 1 h after injection, gamma counter; for tissue uptake dose at 1 h: stomach (whole organ), whole organ
Method: Animal experiments were conducted in accordance with our institutional guidelines and were approved by the Nagasaki University Animal Care Committee and the Kanazawa University Animal Care Committee. The animal experimental protocols were approved by the Committee on Animal Experimentation of Nagasaki University and Kanazawa University. BALB/c nu/nu mice (female; 4 weeks old) were supplied by Japan SLC (Shizuoka, Japan). The mice were maintained in a room at a constant ambient temperature and a 12/12 h light/dark cycle and were given free access to food and water. Mice were subcutaneously injected on their right shoulders with approximately 1.0 × 10^7 HCT116 cells. The tumors were allowed to reach 300–500 mm^3 (1–2 weeks after inoculation) before biodistribution studies were performed.
Each [^67Ga]Ga-NOTA-peptide (7.4 kBq) was administered to mice via tail vein injection in 100 μL of saline. The mice were euthanized 1 h after injection, and their organs were harvested. The tissues were weighed and the radioactivity in each sample was measured using an automated gamma counter (n = 5). The results are expressed as the percent injected dose per gram of tissue (%ID/g) or as %ID.

[1] = tumor/blood, read-out: Tumor/Blood ratio
[2] = tumor/muscle, read-out: Tumor/Muscle ratio
[3] = blood, HCT116 tumor-bearing BALB/c nu/nu mice, read-out: Biodistribution, Blood
[4] = brain, HCT116 tumor-bearing BALB/c nu/nu mice, read-out: Biodistribution, Brain
[5] = heart, HCT116 tumor-bearing BALB/c nu/nu mice, read-out: Biodistribution, Heart
[6] = intestine, HCT116 tumor-bearing BALB/c nu/nu mice, read-out: Biodistribution, Intestine
[7] = HCT116 tumor, BALB/c nu/nu mice, read-out: Biodistribution, Tumor
[8] = kidney, HCT116 tumor-bearing BALB/c nu/nu mice, read-out: Biodistribution, Kidney
[9] = liver, HCT116 tumor-bearing BALB/c nu/nu mice, read-out: Biodistribution, Liver
[10] = lung, HCT116 tumor-bearing BALB/c nu/nu mice, read-out: Biodistribution, Lung
[11] = muscle, HCT116 tumor-bearing BALB/c nu/nu mice, read-out: Biodistribution, Muscle
[12] = pancreas, HCT116 tumor-bearing BALB/c nu/nu mice, read-out: Biodistribution, Pancreas
[13] = spleen, HCT116 tumor-bearing BALB/c nu/nu mice, read-out: Biodistribution, Spleen
[14] = HCT116 tumor-bearing BALB/c nu/nu mice

SMILES	tissue to tissue ratio at 1 h [1]	tissue to tissue ratio at 1 h [2]	tissue uptake at 1 h [3]	tissue uptake at 1 h [4]	tissue uptake at 1 h [5]	tissue uptake at 1 h [6]	tissue uptake at 1 h [7]	tissue uptake at 1 h [8]	tissue uptake at 1 h [9]	tissue uptake at 1 h [10]	tissue uptake at 1 h [11]	tissue uptake at 1 h [12]	tissue uptake at 1 h [13]	tissue uptake dose at 1 h [14]
CC(=O)NCCCCCC(=O)N[C@H](CCC(=O)O)C(=O)N[C@H](CCC(=O)O)C(=O)N[C@H](CCC(=O)O)C(=O)N[C@H](CCC(=O)O)C(=O)NCCCCCC(=O)N1CCC[C@H]1C(=O)N[C@@H](C)C(=O)N[C@@H](C)C(=O)N[C@@H](CC(N)=O)C(=O)N[C@H](C(=O)NCC(=O)N[C@H](CCCNC(=N)N)C(=O)N[C@H](CCCNC(=N)N)C(=O)N[C@H](CCCNC(=N)N)C(=O)N[C@H](CCCNC(=N)N)C(=O)N[C@H](CCCNC(=N)N)C(=O)NCCCCCC(=O)N[C@H](CCCCNC(=S)Nc1ccc(C[C@H]2CN(CC(=O)O)CCN(CC(=O)O)CCN2CC(=O)O)cc1)C(N)=O)C(C)C [[^67Ga]Ga-NOTA-LCP-3, metal not drawn] (Ac-[Ahx][dE][dE][dE][dE][Ahx]PAANVG[dR][dR][dR][dR][dR][Ahx][dK](NOTA(2S-Bn(4-NHCS)))-NH2)	2.2 ± 0.69	2.47	0.46 %ID/g	0.04 %ID/g	0.44 %ID/g	0.63 %ID/g	0.97 ± 0.25 %ID/g	96.6 %ID/g	17.2 %ID/g	1.58 %ID/g	0.4 %ID/g	0.38 %ID/g	4.37 %ID/g	0.19 %ID
CC(=O)NCCCCCC(=O)N[C@H](CCC(=O)O)C(=O)N[C@H](CCC(=O)O)C(=O)N[C@H](CCC(=O)O)C(=O)N[C@H](CCC(=O)O)C(=O)N[C@H](CCC(=O)O)C(=O)N[C@H](CCC(=O)O)C(=O)N[C@H](CCC(=O)O)C(=O)N[C@H](CCC(=O)O)C(=O)N[C@H](CCC(=O)O)C(=O)NCCCCCC(=O)N1CCC[C@H]1C(=O)N[C@@H](C)C(=O)N[C@@H](C)C(=O)N[C@@H](CCCNC(N)=O)C(=O)N[C@H](C(=O)NCC(=O)N[C@H](CCCNC(=N)N)C(=O)N[C@H](CCCNC(=N)N)C(=O)N[C@H](CCCNC(=N)N)C(=O)N[C@H](CCCNC(=N)N)C(=O)N[C@H](CCCNC(=N)N)C(=O)N[C@H](CCCNC(=N)N)C(=O)N[C@H](CCCNC(=N)N)C(=O)N[C@H](CCCNC(=N)N)C(=O)N[C@H](CCCNC(=N)N)C(=O)NCCCCCC(=O)N[C@H](CCCCNC(=S)Nc1ccc(C[C@H]2CN(CC(=O)O)CCN(CC(=O)O)CCN2CC(=O)O)cc1)C(N)=O)C(C)C [[^67Ga]Ga-NOTA-NCP-1, metal not drawn] (Ac-[Ahx][dE][dE][dE][dE][dE][dE][dE][dE][dE][Ahx]PAA[Cit]VG[dR][dR][dR][dR][dR][dR][dR][dR][dR][Ahx][dK](NOTA(2S-Bn(4-NHCS)))-NH2)	4.39 ± 2.07	1.91	0.45 %ID/g	0.04 %ID/g	0.43 %ID/g	0.53 %ID/g	1.8 ± 0.51 %ID/g	122 %ID/g	17.4 %ID/g	1.08 %ID/g	0.96 %ID/g	0.64 %ID/g	3.15 %ID/g	0.22 %ID
CC(=O)NCCCCCC(=O)N[C@H](CCC(=O)O)C(=O)N[C@H](CCC(=O)O)C(=O)N[C@H](CCC(=O)O)C(=O)N[C@H](CCC(=O)O)C(=O)NCCCCCC(=O)N1CCC[C@H]1C(=O)N[C@@H](C)C(=O)N[C@@H](C)C(=O)N[C@@H](CCCNC(N)=O)C(=O)N[C@H](C(=O)NCC(=O)N[C@H](CCCNC(=N)N)C(=O)N[C@H](CCCNC(=N)N)C(=O)N[C@H](CCCNC(=N)N)C(=O)N[C@H](CCCNC(=N)N)C(=O)N[C@H](CCCNC(=N)N)C(=O)NCCCCCC(=O)N[C@H](CCCCNC(=S)Nc1ccc(C[C@H]2CN(CC(=O)O)CCN(CC(=O)O)CCN2CC(=O)O)cc1)C(N)=O)C(C)C [[^67Ga]Ga-NOTA-NCP-3, metal not drawn] (Ac-[Ahx][dE][dE][dE][dE][Ahx]PAA[Cit]VG[dR][dR][dR][dR][dR][Ahx][dK](NOTA(2S-Bn(4-NHCS)))-NH2)	2.54	2.7	0.41 %ID/g	0.04 %ID/g	0.56 %ID/g	0.54 %ID/g	0.95 %ID/g	73.3 %ID/g	20.8 %ID/g	1.36 %ID/g	0.43 %ID/g	0.46 %ID/g	5.38 %ID/g	0.12 %ID
CC(=O)NCCCCCC(=O)N[C@H](CCC(=O)O)C(=O)N[C@H](CCC(=O)O)C(=O)N[C@H](CCC(=O)O)C(=O)N[C@H](CCC(=O)O)C(=O)N[C@H](CCC(=O)O)C(=O)N[C@H](CCC(=O)O)C(=O)N[C@H](CCC(=O)O)C(=O)N[C@H](CCC(=O)O)C(=O)N[C@H](CCC(=O)O)C(=O)NCCCCCC(=O)N1CCC[C@H]1C(=O)N[C@@H](C)C(=O)N[C@@H](C)C(=O)N[C@@H](CC(N)=O)C(=O)N[C@H](C(=O)NCC(=O)N[C@H](CCCNC(=N)N)C(=O)N[C@H](CCCNC(=N)N)C(=O)N[C@H](CCCNC(=N)N)C(=O)N[C@H](CCCNC(=N)N)C(=O)N[C@H](CCCNC(=N)N)C(=O)N[C@H](CCCNC(=N)N)C(=O)N[C@H](CCCNC(=N)N)C(=O)N[C@H](CCCNC(=N)N)C(=O)N[C@H](CCCNC(=N)N)C(=O)NCCCCCC(=O)N[C@H](CCCCNC(=S)Nc1ccc(C[C@H]2CN(CC(=O)O)CCN(CC(=O)O)CCN2CC(=O)O)cc1)C(N)=O)C(C)C [[^67Ga]Ga-NOTA-LCP-1, metal not drawn] (Ac-[Ahx][dE][dE][dE][dE][dE][dE][dE][dE][dE][Ahx]PAANVG[dR][dR][dR][dR][dR][dR][dR][dR][dR][Ahx][dK](NOTA(2S-Bn(4-NHCS)))-NH2)	8.29 ± 3.41	3.54	0.28 %ID/g	0.03 %ID/g	0.53 %ID/g	0.44 %ID/g	1.83 ± 0.32 %ID/g	129 %ID/g	19.1 %ID/g	0.93 %ID/g	0.54 %ID/g	0.31 %ID/g	3.94 %ID/g	0.18 %ID
